Columns and labels:
NF-κB = NF-κB electrophoretic mobility shift assay (EMSA), nuclear lysates of treated HT-29 cells; type: cell-based, human; settings: 10 μM, 3 and 6 hour incubations
HCT-116 xenografts = assay: Subcutaneous colon cancer xenograft in athymic mice; type: in vivo, mouse; settings: HCT-116 subcutaneous xenografts; BAY 11-7085 1 mg/kg twice weekly for 28 days vs DMSO
Protocol: (§1) DLD-1, HCT-116, and HT-29 cells were cultured for 6 days in soft agar in the presence of DMSO (control), 10 μM BAY 11-7082, or 10 μM BAY 11-7085. The data points represent the means of colony counts per field (20×) performed in 5 different regions of the culture dishes. The data shown represent a typical result of two separate experiments. FIG. 2B and FIG. 2C are graphs that show athymic mice received subcutaneous injections of HT-29 (FIG. B) or HCT-116 (FIG. C) cells, followed by […] of BAY 11-7085 (dark bars) or DMSO (white bars) intraperitoneally twice weekly. The bars represent the 25-75% ranges of the tumor volumes and the horizontal lines in the bars are the medians. Using the Kruskal-Wallace statistical test to compare the median tumor volumes between BAY 11-7085 and DMSO yielded a p-value of 0.005 for HT-29 cells but >0.05 for HCT-116 cells.
(§2) HT-29 and HCT-116 cells were harvested in 0.25% trypsin-PBS-EDTA, washed once in media and PBS, and resuspended in PBS at 1 million cells per 200 μL. One million cells were injected either subcutaneously in the backs or intraperitoneally in 5 week old female nu/nu athymic mice (Charles River Labs). For the mice with subcutaneous tumors, the tumors were allowed to establish themselves for 10 days after which they were randomized to BAY 11-7085 or DMSO. For the mice with intraperitoneal tumors, the mice received DMSO or BAY 11-7085 (5 mg/kg) 24 hours before the cancer cells were injected intraperitoneally. […] Subcutaneous tumor sizes were determined by measuring the length and width with calipers. These studies were approved by the University of Utah Institutional Review Board and Institutional Animal Care and Use Committee and performed in the Animal Resource Center. Mice were euthanized when they experienced a greater than 10% loss in body weight or if they appeared ill. Post-mortem examinations included sectioning of kidney, lung, and liver tissues which were stained with hematoxylin and eosin followed by examination for tissue toxicity/damage by an experienced mouse pathologist (E.J.E.) who was blinded to therapy.
(§3) HCT-116 and HT-29 cell lines were used to generate subcutaneous tumors in athymic female mice. The mice were subsequently randomized to be treated with vehicle (DMSO) alone or BAY 11-7085 […] twice weekly for 28 days.

HT-29 xenografts = assay: as above; type: in vivo, mouse
Protocol: as §1, §2, §3

TRAF-1 and TRAF-2 = assay: Immunoblot of anti-apoptotic proteins in HT-29 cells; type: cell-based, human; settings: 20 μM for 8 hours
Protocol: (§4) The data points represent the means of triplicate experiments and the error bars the standard errors of the means. […] The percent of apoptotic cells was then determined by the annexin V assay. […] The results shown are typical of two separate experiments. […] Immunoblots were performed for c-IAP-2, TRAF-1, TRAF-2, and FLIP. All lanes contain equal total protein.
(§5) The cells were washed twice in ice cold PBS and then lysed in 4° C. lysis buffer (50 mM HEPES, 150 mM NaCl, 1.5 mM MgCl2, 1 mM EGTA, 100 mM NaF, 10 mM Na2PO4, 1 mM Na3VO4, 10% glycerol, 1% TRITON™ X-100, and 1 μg/mL each of aprotinin, leupeptin, chymostatin, pepstatin) and clarified at 12,000 rpm at 4° C. for 15 minutes. The lysates were normalized for total protein concentration. Aliquots of the lysates were then mixed 1:1 in sample buffer (125 mM Tris-HCl (pH 6.8), 20% glycerol, 4% sodium dodecyl sulfate, 2% β-mercaptoethanol, 10 μg/mL bromophenol blue) and boiled for 3 minutes. The samples were loaded onto SDS-PAGE gels (7.5 or 10% acrylamide). […]
(§6) For immunodetection, the blocked blots were probed with primary antibody for 2 hours at 4° C. on a rocker. […] Alkaline phosphatase was detected by a colorimetric reaction using a BCIP (5-bromo-4-chloro-3-indolyl phosphate)/NBT (nitroblue tetrazolium) kit (Zymed).

c-IAP-1 = assay: as above; type: cell-based, human; settings: transiently suspended or adherent HT-29; 20 μM for 8 hours
Protocol: as §4, §5, §6

## CC(C)(C)c1ccc(S(=O)(=O)/C=C/C#N)cc1 [BAY 11-7085, (2E)-3-[4-(tertiarybutylphenyl)sulfonyl]-2-propenenitrile]
NF-κB
  inhibition of NF-κB activity (EMSA): more profound inhibition of NF-κB activity
HCT-116 xenografts
  tumor volumes vs control group: no statistically significant overall difference in the tumor volumes
HT-29 xenografts; HT-29 subcutaneous xenografts, BAY 11-7085 1 mg/kg twice weekly for 28 days vs DMSO
  tumor volumes vs control group: statistically significant overall reduction in the tumor volumes
HT-29 xenografts; athymic mice, compound alone, cell line not given
  colon cancer xenograft growth: inhibit colon cancer xenograft growth
TRAF-1 and TRAF-2
  TRAF-1 and TRAF-2 protein expression: decrease in the protein expression of both TRAF-1 and TRAF-2 proteins
c-IAP-1
  c-IAP-1 protein expression: No decrease in c-IAP-1 protein expression
